Measured values taken from US11883398B2, “Dipeptidylpeptidase 4 inhibition enhances lymphocyte trafficking, improving both naturally occurring tumor immunity and immunotherapy” (INSTITUT PASTEUR, priority 2015, dated 2024).

Columns and labels:
[1] = Thioglycollate induced peritonitis; format: in vivo, mouse; details: 24 h after intraperitoneal thioglycollate, sitagliptin vs control
Experimental: WT and Dpp4^−/− mice were intraperitoneally injected with PBS or 1 μg of mCXCL10, mCXCL9 or mCCL5 (all from Peprotech). At the indicated time points, mice were sacrificed and peritoneal cells were collected in 10 mL of PBS. For thioglycollate induced peritonitis mice were intraperitoneally injected with thioglycollate 3% weight/volume, 24 hours before collection of peritoneal cells.

[2] = test system: B16F10 tumors; assay: Flow cytometry of leukocytes infiltrating B16F10 tumors; format: in vivo, mouse
Experimental: B16F10 and M04 (Ovalbumin-expressing B16F10 cells, gift from C. Reis e Sousa) tumor cells were cultured in DMEM (Gibco) supplemented with 10% FCS (PAA), 0.1 mM non-essential amino acids, 1 mM sodium pyruvate, 10 mM Hepes, 70 μM beta-mercaptoethanol and 23 μg/ml gentamycin (all from Gibco). CT26 colon carcinoma cells were cultured in RPMI (Gibco) supplemented as described for DMEM. Cells for injections were passaged 1-2 times after thawing, before use. WT and genetically modified mice were subcutaneously injected with 2×10^5 B16 or 5×10^5 CT26 cells in the shaved right flank. When indicated, mice received an intra-tumoral injection of 1 μg of recombinant mCXCL10, 5 μg CpG-A in DOPTAP or vehicle control. For blocking of chemokine and chemokine receptors, WT mice were intraperitoneally injected with 100 μg of hamster a-mCXCR3 (clone CXCR3-173, BioLegend), 100 μg of hamster α-mCCR5 (clone HM-CCR5, BioLegend), 50 μg of rat anti-mCXCL10 (clone 134013, R&D systems) and 20 μg of rat-α-mCXCR4 (clone 2B11/CXCR4, BD Biosciences) or with respective isotype antibodies (hamster IgG (clone HTK888, BioLegend, used as control for mCXCR3 and mCCR5 blockage); rat IgG2a (clone 54447, R&D systems, used as control for mCXCL10 blockade) and rat IgG2b (clone A95-1, BD Biosciences, used as control for mCXCR4 blockade). Intraperitoneal injection was done one day before and 4, 8 and 12 days after tumor cell injection. For CXCL10 neutralization, antibodies were injected on day 2, 5, 8 and 11 after tumor cell injection. For immunotherapy protocols, mice were intraperitoneally injected with 100 μg of mouse α-CTLA-4 (clone 9D9, Bioxcell), 200 μg of PD1 (clone RMP1-14, Bioxcell), a combination of 100 μg of α-CTLA-4+200 μg of a-PD1 or control isotypes (100 μg […] and 200 μg rat IgG2a (clone 2A3), both from Bioxcell) on day 3, 6 and 9 after tumor cell implantation. For adoptive cell transfer experiments, Pmel-1 Thy-1.1^+Thy-1.1^+, Cxcr3^−/− Thy-1.1^+Thy-1.2^+ Pmel-1 or OT1 splenocytes were activated ex-vivo, by incubation with 1 nM of human gp100 (for Pmel-1 cells) or […] (for OT1 cells) peptides for 1h at room temperature with agitation. Splenocytes were then washed and resuspended in R10 supplemented with 30U/mL of recombinant human IL-2. CD8^+ T cells were expanded for 6-7 days before used. For analysis of tumor infiltrates, activated Cxcr3^+/+ Thy-1.1^+Thy-1.1^+ and Cxcr3^−/− Thy-1.1^+Thy-1.2^+ transgenic Pmel-1 CD8^+ T cells were mixed in a 1:1 ratio (total 1×10^6 cells) and injected intravenously into gender matched tumor-bearing mice (3 days after tumor cell injection). For analysis of tumor growth, activated OT1 cells were injected intravenously (1×10^5 cells per mouse) into gender matched tumor-bearing mice, 3 days after tumor cell injection. Tumor height and width were measured with a caliper and tumor volume was calculated (Elliptical volume=width^2×height×0.523). The model of metastatic melanoma was achieved by intravenous injection of 2×10^5 B16 tumor cells. 15 days after tumor cell injection, lungs were dissected, placed in Fekete's solution and metastatic foci were counted. Lungs with more than 100 metastatic nodules were defined as 100.
Fluorochrome-conjugated anti-mouse CD3 (clone145-2C11), CD8 (clone 53-6.7), CD4 (clone RM4-5), NK1.1 (clone PK136), CD49b (clone DX5), CD25 (clone PC61), B220 (clone RA3-6B2), Ly6G (clone 1A8), Ly6C (clone AL-21), CD11 b (clone M1/70) Siglec-F (clone E50-2440), MHCII IA-IE (clone M5/114.15.2), CD45.2 (clones 56-0454-82 and 109830), Thy-1.1 (clone HIS51), Thy-1.2 (clone 53-2.1), DPP4 (clone H194-112) and CXCR3 (clone CXCR3-173) were from eBiosciences and BD Biosciences. Fluorochrome conjugated anti-F4/80 (clone CI:A3-1) was from AbDserotec. For exclusion of dead cells, Live/Dead fixable Aqua reagent (Invitrogen) was used. For all staining protocols, cell suspensions were incubated with mouse CD16/CD32 Fc Blocking antibodies (BD Biosciences) prior to antibody. […]

[3] = B16F10 tumors, sitagliptin vs control

N[C@@H](CC(=O)N1CCn2c(nnc2C(F)(F)F)C1)Cc1cc(F)c(F)cc1F [sitagliptin]
thioglycollate-induced neutrophil, monocyte and eosinophil migration [1]: no differences were observed | number of CD4+ and CD8+ T cells localized to the tumors [2, 3]: significant increase | number of tumor-infiltrating myeloid cells, NK cells, B lymphocytes or CD25hi regulatory T cells [2, 3]: no significant differences | CXCL10-mediated trafficking of Pmel-1 cells into B16F10 tumors ([2]; adoptive transfer, 12-14 hr after intratumoral mCXCL10): enhanced | lymphocyte recruitment into the tumor parenchyma after intratumoral mCXCL10 ([2]; day 7 B16F10 tumors, 12-14 h after injection): enhanced CXCL10 recruitment of T cells and NK cells | trafficking of B cells, regulatory T cells, eosinophils or neutrophils into tumors after intratumoral mCXCL10 ([2]; day 7 B16F10 tumors, sitagliptin vs control): unchanged
